From patent US12606568B2, “SMARCA degraders and uses thereof” (Kymera Therapeutics, Inc., priority 2020, dated 2026) come the findings set out here.

Molecules are shown by their SMILES.

Common to all, as to type: cell-based
Assay [1] addresses T1, SMARCA2 (Homo sapiens, UniProt P51531). The experiment in a line: SMARCA2 Western blot MV4-11 degradation. On the set-up: SMARCA2 and SMARCA4 protein degradation in MV4-11 cells; endogenous in cells; host or cells: MV4-11. Particulars: for Dmax: MV4-11, MV4-11 cells, read-out: SMARCA2 MSD MV411 degradation 24 h: average Dmax %; for Dmax / DC50: 24 h; for DC50 / SMARCA2 MSD MV411 degradation 24 h: average Dmax %: MV4-11 cells; for DC50: read-out: SMARCA2 MSD MV411 degradation 24 h: Mean external-Abs DC50. The procedure: (§1) Example 54. SMARCA2 and SMARCA 4 Western Blot MV4-11 Degradation
(§2) Cells were seeded into 6-well plates (MV4-11: 4×10^6 cells/well/1 ml) and 1 ml of 2× compound solution was added into the well to make the final concentration and the plates were mixed well and incubated for 24 hours (No cytotoxicity was observed). The cell were collected with media and spun at 3000 rpm for 5 minutes. The supernatant was aspirated and the well and the cells were washed with cold PBS once and combined for centrifugation again; the supernatant aspirated again. 200 ul pre-chilled RIPA lysis buffer (Boston BioProducts BP-115D) with protease/phosphatase inhibitor (Roche 05892791001/Roche 04906837001) was directly added into the tube to lyze the cells for 20 minutes on ice. The cell lysate were collected into EP tubes and spun at 13000 rpm for 20 minutes and 72 ul supernatant was transferred to a fresh EP tube containing 18 ul of 5× loading buffer (Beyotime Bio P0015) to make the loading samples. The samples were heated to 100° C. for 10 minutes and cooled to RT and microcentrifuged. 20 ul of samples were loaded onto SDS-PAGE gel (Novex, WG1402BOX) and the gel was run at 80 V for 20 minutes and 120 V for 1.5 hours. The samples were electrotransfer to a NC membrane using wet-transfer method with 250 mA for 2.5 hours. The membrane was blocked with LICOR blocking buffer (LI-COR, 927-50000) for 1 hour. The membrane was washed three times with TBST (CST #9997S), 5 minutes each. Incubation was performed with primary antibody prepared in blocking buffer with 0.1% Tween-20 (Solarbio, P8220) at 4° C. overnight (Anti-SMARCA2/BRM antibody (ab15597) 1:500; Anti-BRG1 antibody [EPR3912] (ab108318) 1:1000; Rabbit anti-Baf180 antibody [EPR15860] (Abcam, ab196022) 1:1000; mouse anti-beta-Actin (8H10D10) (CST #3700) 1:10000). The membrane was washed three times with TBST, 5 minutes each. Incubation with secondary antibody was performed for 1 hour at RT (anti-rabbit IgG (Licor, 926-32211) 1:5000; anti-mouse IgG (LI-COR, 926-68070) 1:5000). The membrane was washed three times with TBST, 5 minutes each and lastly the LiCOR was read.
(§3) The letter codes for SMARCA degradation potency (DC50) include: A (<100 nM), B (100-500 nM), C (501-1000 nM), and D (>1000 nM). The letter codes for the percentage of SMARCA degradation after 24 hours (Dmax %) include: A (>90% degradation), B (>70-90% degradation), C (50-70% degradation), and D (<50% degradation).
On the technique in general: In western blotting, separated proteins are transferred to a membrane and probed.

Assay [2] addresses T2, SMARCA4 (Homo sapiens, UniProt P51532).
T2 construct: SMARCA2 and SMARCA4 protein degradation in MV4-11 cells; endogenous in cells; host or cells: MV4-11
The experiment in a line: SMARCA4 Western blot MV4-11 degradation. The conditions noted are these: for Dmax: MV4-11, MV4-11 cells, read-out: SMARCA4 MSD MV411 degradation 24 h: average Dmax %; for Dmax / DC50: 24 h; for DC50 / SMARCA4 MSD MV411 degradation 24 h: average Dmax %: MV4-11 cells; for DC50: read-out: SMARCA4 MSD MV411 degradation 24 h: Mean external-Abs DC50. As for the experimental part:
as §1, §2, §3

The target in assay [3] is T1, SMARCA2. The experiment in a line: MSD SMARCA2 degradation in A549 cell line. On the set-up: endogenous in cells. The conditions noted are these: for Dmax: A549, A549 cells; for Dmax / DC50: 24 h; for DC50 / SMARCA2 MSD A549 degradation 24 h: Average Dmax %: A549 cells; for DC50: read-out: SMARCA2 MSD A549 degradation 24 h: Average external-Abs DC50. The procedure: Example 53. MSD SMARCA2 Degradation in A549 Cell Line
Cells were seeded into 96-well plates (A549 cells: 2×10^4 cells/well/100 ul media) abd incubated overnight. The next day, 200 nl compound were added into the intermediate plate with Echo (Labcyte 550) from source plate containing a 3-fold serial dilution from top concentration of 1 mM. The culture medium was changed with 80 ul of fresh medium and 80 ul of 2× compound solution was added into the well to make a final concentration of 1000 nM, 333.3 nM, 111.1 nM, 37.04 nM, 12.35 nM, 4.115 nM, 1.372 nM, 0.457 nM, 0.152 nM and 0 nM (DMSO). The wells were mixed and then incubated for 24 hours. The media was aspirated from the cultures and 60 ul pre-chilled PIPA lysis buffer (Boston BioProducts BP-115D) with protease/phosphatase inhibitor (Roche 05892791001/Roche 04906837001) was added into the well to lyze the cells for 20 minutes at 4° C. The MSD plate (L15XA) was coated with 40 ul cell lysate and incubated at 4° C. overnight. The next day, the plate was washed three times with TBST (CST #9997S), 150 ul/well. The MSD plates was blocked with 150 ul blocking buffer per well and shaked for 1 hr at R^†, 600 rpm. The blocking buffer was 3% Blocker A (MSD, R93BA-4) in TBST. The MSD plate was washed three times with 150 ul/well of TBST and 25 ul/well of detection antibody (Rabbit anti-SMARCA2/BRM antibody, 100 μg/ml, ab223735) was added at final concentration of 1 ug/mi diluted in 1% o Blocking buffer and shaken for 1 hour at R^†, 600 rpm. The MSD plate was washed three times with 150 ul/well of TBST and 25 ul/well of SULFO-TAG anti-rabbit antibody (MSD, R32AB-1) was added at final concentration of 1 μg/ml diluted in […] Blocking buffer and shaken for 1 hour at R^†, 600 rpm. The MSD plate was washed three times with 150 ul/well of TBST and 150 ul/well of 2×MSD reading buffer diluted from 4× (MSD, R92TC-2) with water was added. Lastly, the MSD instrument was read.
The letter codes for SMARCA2 degradation potency (DC50) include: A (<100 nM), B (100-500 nM), C (501-1000 nM), and D (>1000 nM). The letter codes for the percentage of SMARCA2 degradation after 24 hours (Dmax % o) include: A (>90% o degradation), B (>70-90% o degradation), C (50-70% o degradation), and D (<50% degradation).

T1 sequence (P51531 whole entry): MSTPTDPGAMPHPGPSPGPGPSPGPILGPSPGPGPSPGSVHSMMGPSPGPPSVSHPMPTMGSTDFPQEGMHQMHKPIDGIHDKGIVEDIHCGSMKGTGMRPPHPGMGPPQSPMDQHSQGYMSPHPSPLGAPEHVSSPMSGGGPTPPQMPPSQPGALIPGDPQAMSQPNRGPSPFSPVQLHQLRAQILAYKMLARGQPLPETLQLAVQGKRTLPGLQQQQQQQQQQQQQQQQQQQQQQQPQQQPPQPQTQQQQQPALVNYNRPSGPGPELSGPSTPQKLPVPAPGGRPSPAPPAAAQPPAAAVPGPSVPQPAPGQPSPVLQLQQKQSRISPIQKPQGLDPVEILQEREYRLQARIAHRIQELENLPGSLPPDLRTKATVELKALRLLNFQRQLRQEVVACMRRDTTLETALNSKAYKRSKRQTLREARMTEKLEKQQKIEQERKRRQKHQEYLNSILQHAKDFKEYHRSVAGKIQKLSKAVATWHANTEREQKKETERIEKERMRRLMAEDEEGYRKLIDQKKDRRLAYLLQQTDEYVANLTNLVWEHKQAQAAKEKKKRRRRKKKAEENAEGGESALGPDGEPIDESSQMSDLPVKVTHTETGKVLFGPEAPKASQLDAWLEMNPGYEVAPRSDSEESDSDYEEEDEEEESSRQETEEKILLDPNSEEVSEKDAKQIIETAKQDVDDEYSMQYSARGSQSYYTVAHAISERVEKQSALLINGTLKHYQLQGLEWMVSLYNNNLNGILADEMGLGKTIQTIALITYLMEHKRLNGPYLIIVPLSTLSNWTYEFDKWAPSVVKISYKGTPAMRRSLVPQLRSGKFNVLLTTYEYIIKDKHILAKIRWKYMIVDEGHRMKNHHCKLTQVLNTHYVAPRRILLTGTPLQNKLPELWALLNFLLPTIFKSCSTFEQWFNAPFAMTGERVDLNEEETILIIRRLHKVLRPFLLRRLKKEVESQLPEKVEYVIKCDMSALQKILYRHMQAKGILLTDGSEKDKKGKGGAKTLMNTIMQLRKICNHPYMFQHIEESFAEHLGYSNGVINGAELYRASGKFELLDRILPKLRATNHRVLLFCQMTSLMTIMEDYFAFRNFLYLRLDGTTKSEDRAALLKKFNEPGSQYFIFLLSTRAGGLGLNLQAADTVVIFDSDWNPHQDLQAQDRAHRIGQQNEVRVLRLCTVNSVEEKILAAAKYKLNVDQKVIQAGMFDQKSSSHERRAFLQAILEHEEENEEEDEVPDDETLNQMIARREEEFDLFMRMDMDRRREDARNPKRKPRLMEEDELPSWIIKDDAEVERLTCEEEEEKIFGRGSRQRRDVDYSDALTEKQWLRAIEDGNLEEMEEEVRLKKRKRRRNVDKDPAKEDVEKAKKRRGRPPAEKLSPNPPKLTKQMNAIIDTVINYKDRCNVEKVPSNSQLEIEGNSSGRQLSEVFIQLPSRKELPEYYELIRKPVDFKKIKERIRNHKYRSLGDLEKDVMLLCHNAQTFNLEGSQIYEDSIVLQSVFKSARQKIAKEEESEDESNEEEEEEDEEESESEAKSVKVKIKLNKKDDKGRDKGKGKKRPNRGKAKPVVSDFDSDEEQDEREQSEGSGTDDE
T2 sequence (P51532 whole entry): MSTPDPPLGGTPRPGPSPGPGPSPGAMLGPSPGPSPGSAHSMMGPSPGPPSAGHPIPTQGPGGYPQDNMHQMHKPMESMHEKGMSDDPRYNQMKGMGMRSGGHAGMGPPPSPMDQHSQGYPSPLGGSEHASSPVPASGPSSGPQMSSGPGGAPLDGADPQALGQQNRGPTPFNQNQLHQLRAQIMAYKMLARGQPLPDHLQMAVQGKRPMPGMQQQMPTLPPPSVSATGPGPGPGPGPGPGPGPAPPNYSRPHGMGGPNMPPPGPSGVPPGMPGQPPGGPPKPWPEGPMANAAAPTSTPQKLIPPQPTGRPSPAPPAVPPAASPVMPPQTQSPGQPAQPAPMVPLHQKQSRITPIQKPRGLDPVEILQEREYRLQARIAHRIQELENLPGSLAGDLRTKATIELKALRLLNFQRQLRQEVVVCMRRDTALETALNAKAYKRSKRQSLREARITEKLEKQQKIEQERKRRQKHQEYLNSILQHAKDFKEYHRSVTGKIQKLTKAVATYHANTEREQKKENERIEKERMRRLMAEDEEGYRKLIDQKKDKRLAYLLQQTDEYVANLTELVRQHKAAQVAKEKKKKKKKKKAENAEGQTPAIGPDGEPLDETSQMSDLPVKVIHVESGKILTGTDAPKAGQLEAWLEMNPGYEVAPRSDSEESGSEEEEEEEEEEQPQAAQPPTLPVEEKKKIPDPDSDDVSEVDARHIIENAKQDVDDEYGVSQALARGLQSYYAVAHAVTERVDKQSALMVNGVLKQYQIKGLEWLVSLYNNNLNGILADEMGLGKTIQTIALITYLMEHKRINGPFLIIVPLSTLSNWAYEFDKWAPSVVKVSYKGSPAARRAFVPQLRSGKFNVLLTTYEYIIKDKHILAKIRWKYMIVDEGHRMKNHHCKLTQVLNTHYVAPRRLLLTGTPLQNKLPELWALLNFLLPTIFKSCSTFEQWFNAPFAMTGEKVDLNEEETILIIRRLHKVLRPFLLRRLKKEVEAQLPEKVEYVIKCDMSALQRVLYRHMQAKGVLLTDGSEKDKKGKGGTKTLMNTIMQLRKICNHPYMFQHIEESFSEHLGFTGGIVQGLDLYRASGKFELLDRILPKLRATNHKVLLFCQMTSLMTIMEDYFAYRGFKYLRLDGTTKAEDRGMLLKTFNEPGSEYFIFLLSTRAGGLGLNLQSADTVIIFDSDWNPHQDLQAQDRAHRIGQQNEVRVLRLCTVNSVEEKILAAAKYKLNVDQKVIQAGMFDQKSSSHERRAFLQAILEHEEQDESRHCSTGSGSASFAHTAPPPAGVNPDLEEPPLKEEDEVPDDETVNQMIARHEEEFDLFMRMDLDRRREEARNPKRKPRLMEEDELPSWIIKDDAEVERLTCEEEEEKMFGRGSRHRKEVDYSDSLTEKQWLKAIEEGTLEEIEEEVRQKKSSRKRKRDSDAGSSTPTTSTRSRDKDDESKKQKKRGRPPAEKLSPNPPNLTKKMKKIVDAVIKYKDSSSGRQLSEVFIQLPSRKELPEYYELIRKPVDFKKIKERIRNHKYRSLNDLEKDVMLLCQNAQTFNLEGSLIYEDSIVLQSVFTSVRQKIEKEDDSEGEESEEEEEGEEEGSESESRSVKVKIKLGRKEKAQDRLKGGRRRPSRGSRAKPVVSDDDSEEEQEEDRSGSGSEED

Usually Dmax stands for the largest share of the target that was removed. A word on the DC50: it is the concentration giving 50% degradation. Turning to `Cc1ncsc1-c1ccc(CNC(=O)[C@@H]2C[C@@H](O)CN2C(=O)C(c2cc(N3CCC(N4CCC(c5cnc(N6C7CCC6CN(c6cc(-c8ccccc8O)nnc6N)C7)nc5)CC4)CC3)no2)C(C)C)cc1` (mixture of isomers) [I-47, (2S,4R)-1-(2-(3-(4-(2-(3-(3-amino-6-(2-hydroxyphenyl)pyridazin-4-yl)-3,8-diazabicyclo[3.2.1]octan-8-yl)pyrimidin-5-yl)-[1,4′-bipiperidin]-1′-yl)isoxazol-5-yl)-3-methylbutanoyl)-4-hydroxy-N-(4-(4-methylthiazol-5-yl)benzyl)pyrrolidine-2-carboxamide], the Dmax in assay [1], in assay [2] and in assay [3] was greater than 90% throughout. Further, the DC50 in assay [1], in assay [2] and in assay [3] was less than 100 nM each time.

In the case of `Cc1ncsc1-c1ccc([C@H](C)NC(=O)[C@@H]2C[C@@H](O)CN2C(=O)[C@@H](NC(=O)[C@H]2CC3(C2)C[C@H](N2CCC(c4cnc(N5C6CCC5CN(c5cc(-c7ccccc7O)nnc5N)C6)nc4)CC2)C3)C(C)(C)C)cc1` (single isomer, unassigned) [I-1], the Dmax in assay [1] was 70 to 90%; in assay [2] it was 70 to 90%; in assay [3], greater than 90%. Moreover, the results for the DC50 in assay [1], in assay [2] and in assay [3] were less than 100 nM, less than 100 nM and 100 to 500 nM, respectively.

As for `Cc1ncsc1-c1ccc([C@H](C)NC(=O)[C@@H]2C[C@@H](O)CN2C(=O)[C@@H](NC(=O)[C@H]2CC3(C2)C[C@H](N2CCC(c4cnc(N5C6CCC5CN(c5cc(-c7ccccc7O)nnc5N)C6)nc4)CC2)C3)C(C)(C)C)cc1` (single isomer, unassigned) [I-2], in assay [1], the “SMARCA2 MSD MV411 degradation 24 h: average Dmax %” value is “A (A (>90% degradation))” and the DC50 is less than 100 nM. Besides, in assay [2], the “SMARCA4 MSD MV411 degradation 24 h: average Dmax %” value was “B (B (>70-90% degradation))” and the DC50 is less than 100 nM. For the same molecule, in assay [3], the “SMARCA2 MSD A549 degradation 24 h: Average Dmax %” value is “A (A (>90% o degradation))” and the DC50 was less than 100 nM.

As to `Cc1ncsc1-c1ccc(C2(NC(=O)[C@@H]3C[C@@H](O)CN3C(=O)[C@@H](NC(=O)[C@H]3CC4(C3)C[C@H](N3CCC(c5cnc(N6C7CCC6CN(c6cc(-c8ccccc8O)nnc6N)C7)nc5)CC3)C4)C(C)(C)C)CC2)cc1` (single isomer, unassigned) [I-3], the Dmax in assay [1] was greater than 90%; in assay [2], 70 to 90%; in assay [3] it was greater than 90%. Moreover, the DC50 in assay [1], in assay [2] and in assay [3] was less than 100 nM each time.

Turning to `Cc1ncsc1-c1ccc(C2(NC(=O)[C@@H]3C[C@@H](O)CN3C(=O)[C@@H](NC(=O)[C@H]3CC4(C3)C[C@H](N3CCC(c5cnc(N6C7CCC6CN(c6cc(-c8ccccc8O)nnc6N)C7)nc5)CC3)C4)C(C)(C)C)CC2)cc1` (single isomer, unassigned) [I-4], in assay [1], the “SMARCA2 MSD MV411 degradation 24 h: average Dmax %” value is listed as “A (A (>90% degradation))” and the DC50 is less than 100 nM. In addition, in assay [2], the “SMARCA4 MSD MV411 degradation 24 h: average Dmax %” value is on record as “A (A (>90% degradation))” and the DC50 is less than 100 nM. For the same molecule, in assay [3], the “SMARCA2 MSD A549 degradation 24 h: Average Dmax %” value is “A (A (>90% o degradation))” and the DC50 lay in the range of 100 to 500 nM.

Regarding `Cc1ncsc1-c1ccc([C@H](C)NC(=O)[C@@H]2C[C@@H](O)CN2C(=O)[C@@H](NC(=O)[C@H]2CC3(C2)C[C@H](N2CCC(c4ccc(N5C6CCC5CN(c5cc(-c7ccccc7O)nnc5N)C6)cc4)CC2)C3)C(C)(C)C)cn1` (single isomer, unassigned) [I-5], in assay [1], the Dmax is less than 50% and the DC50 lay within 100 to 500 nM. In addition, in assay [2], the “SMARCA4 MSD MV411 degradation 24 h: average Dmax %” value is recorded as “D (D (<50% degradation))” and the DC50 was greater than 1000 nM. In assay [3], the Dmax is less than 50% and the 50% degradation concentration (DC50) is greater than 1000 nM.

Regarding `Cc1ncsc1-c1ccc([C@H](C)NC(=O)[C@@H]2C[C@@H](O)CN2C(=O)[C@@H](NC(=O)[C@H]2CC3(C2)C[C@H](N2CCC(c4ccc(N5C6CCC5CN(c5cc(-c7ccccc7O)nnc5N)C6)cc4)CC2)C3)C(C)(C)C)cn1` (single isomer, unassigned) [I-6], in assay [1], the “SMARCA2 MSD MV411 degradation 24 h: average Dmax %” value is reported as “C (C (50-70% degradation))” and the DC50 is 501 to 1000 nM. For the same molecule, in assay [2], the “SMARCA4 MSD MV411 degradation 24 h: average Dmax %” value is given as “A (A (>90% degradation))” and the DC50 is greater than 1000 nM. Also, in assay [3], the “SMARCA2 MSD A549 degradation 24 h: Average Dmax %” value is given as “B (B (>70-90% o degradation))” and the DC50 was greater than 1000 nM.

`Cc1ncsc1-c1ccc(CNC(=O)[C@@H]2C[C@@H](O)CN2C(=O)[C@@H](NC(=O)[C@H]2CC3(C2)C[C@H](N2CCN(c4cnc(N5C6CCC5CN(c5cc(-c7ccccc7O)nnc5N)C6)nc4)CC2)C3)C(C)(C)C)cc1` (single isomer, unassigned) [I-8]: the Dmax was 70 to 90% in assay [1], less than 50% in assay [2] and 70 to 90% in assay [3]. Besides, the DC50 in assay [1] was less than 100 nM; in assay [2], greater than 1000 nM; in assay [3], less than 100 nM.

Turning to `Cc1ncsc1-c1ccc(CNC(=O)[C@@H]2C[C@H](O)CN2C(=O)[C@@H](NC(=O)[C@H]2CC3(C2)C[C@H](N2CCC(c4cnc(N5C6CCC5CN(c5cc(-c7ccccc7O)nnc5N)C6)nc4)CC2)C3)C(C)(C)C)cc1` (stereo partly drawn) [I-80, (2S,4S)-1-((2S)-2-(6-(4-(2-(3-(3-amino-6-(2-hydroxyphenyl)pyridazin-4-yl)-3,8-diazabicyc-lo[3.2.1]octan-8-yl)pyrimidin-5-yl)piperidin-1-yl)spiro[3.3]heptane-2-carboxamido)-3,3-dimethylbutanoyl)-4-hydroxy-N-(4-(4-methylthiazol-5-yl)benzyl)pyrrolidine-2-carbox-amide], the DC50 in assay [2] and in assay [3] was greater than 1000 nM throughout.
